From patent publication US7718641B2, “Pyrrolo [3,4-H] isoquinoline compounds and methods for modulating gated ion channels” (Aros Pharma ApS, priority 2005, dated 2010)

Tested on: formalin-induced pain
Experiment: Formalin test, model of acute tonic pain
Assay type: in vivo, rat
Experimental: Male Sprague-Dawley rats are housed together in groups of three animals under standard conditions with unrestricted access to food and water. All experiments are conducted according to the ethical guidelines for investigations of experimental pain in conscious animals (Zimmerman, 1983)
Assessment of formalin-induced flinching behavior in normal, uninjured rats (body weight 150-180 g) was made with the use of an Automated Nociception Analyser (University of California, San Diego, USA). Briefly, this involved placing a small C-shaped metal band (10 mm wide×27 mm long) on the hindpaw of the rat to be tested. The rats (four rats were included in each testing session) were then placed in a cylindrical plexiglass observation chamber (diameter 30.5 cm and height 15 cm) for 20 min for adaptation purposes prior to being administered drug or vehicle according to the experimental paradigm being followed. After adaptation, individual rats were then gently restrained and formalin (5% in saline, 50 μl, s.c.) was injected into the plantar surface of the hindpaw using a 27G needle. Rats were then returned to their separate observation chambers, each of which were in turn situated upon an enclosed detection device consisting of two electromagnetic coils designed to produce an electromagnetic field in which movement of the metal band could be detected. The analogue signal was then digitised and a software algorithm (LabView) applied to enable discrimination of flinching behaviour from other paw movements. A sampling interval of 1 min was used and on the basis of the resulting response patterns 5 phases of nociceptive behaviour were identified and scored: first phase (P1; 0-5 min), interphase (Int; 6-15 min), second phase (P2; […]), phase 2A (P2A; 16-40 min) and phase 2B (P2B; 41-60 min).
Nociceptive behavior was also determined manually every 5 min by measuring the amount of time spent in each of four behavioral categories: 0, treatment of the injected hindpaw is indistinguishable from that of the contralateral paw; 1, the injected paw has little or no weight placed on it; 2, the injected paw is elevated and is not in contact with any surface; 3, the injected paw is licked, bitten, or shaken. A weighted nociceptive score, ranging from 0 to 3 was calculated by multiplying the time spent in each category by the category weight, summing these products, and dividing by the total time for each 5 min block of time. (Coderre et al., Pain 1993; 54: 43). On the basis of the resulting response patterns, […] of nociceptive behavior were identified and scored: first phase (P1; 0-5 min), interphase (Int; 6-15 min), second phase (P2; […]), phase 2A (P2A; 16-40 min) and phase 2B (P2B; 41-60 min). […]

| Structure (SMILES) | ED50 (Rattus norvegicus, ip, i.p. 30 min before formalin, phase 2 (phase IIa), rat, read-out: ED50, total pain score in the formalin test) [mg/kg] | total pain score behavior (flinching, licking, biting) (i.p. 30 min before formalin, phase 1 and 2, n=6-8) | pain intensity as evaluated by the flinching behavior (Automated Nociception Analyser, n=6-8) |
| --- | --- | --- | --- |
| COc1ccc(F)cc1-c1cc2c(c3c1CCN(C)C3)NC(=O)/C2=N/O [Compound A, 5-(5-fluoro-2-methoxyphenyl)-6,7,8,9-tetrahydro-3-(hydroxyimino)-8-methyl-1H-pyrrolo[3,2-h]isoquinoline-2(3H)-one] | ~12 | reduce the total pain score behavior |  |
| CCN1CCc2c(-c3ccccc3)cc3c(c2C1)NC(=O)/C3=N/O [Compound H, 5-phenyl-6,7,8,9-tetrahydro-3-(hydroxyimino)-8-ethyl-1H-pyrrolo[3,2-h]isoquinoline-2(3H)-one] |  |  | dose-dependent reduction of the pain intensity |
